Read-outs that look alike come from different tables or passages of the source.
Tests used:
rat EAE model = test: Rat EAE disease model; type: in vivo
[1] = test system: Con-A induced hepatitis model; test: Con-A induced hepatitis model; type: in vivo, mouse
Method: This model was generally conducted as follows. C57Bl/6-Albino/129SvEv mice were injected intravenously (i/v) via the lateral tail vein with a single sublethal dose of Concanavalin A from Canavalia ensiformis (Jack bean, Type IV-S, lyophilized powder, aseptically processed; Sigma) administered at 10-16 mg/kg mouse body weight in a total volume of 0.1-0.3 ml of pyrogen-free PBS. The tail vein injections of mice restrained in a Plexiglas mouse restrainer were performed without anesthesia, using a 1 ml syringe with a 27 gauge needle. At six and 24 hr post-injection, blood samples were collected by retro-orbital bleeding. The animals were sacrificed and sera from the blood samples were analyzed for the presence of IL-12, TNF-α, MCP-1, IFN-γ, IL-10, and IL-6 using a mouse inflammation cytometric bead array (CBA) kit (BD Biosciences, Mountain View, Calif.), according to the manufacturer's instructions. Data were acquired with a FACSCalibur flow cytometer and analyzed with BD CBA Software (BD Biosciences). Biochemical markers of liver failure were assessed by measuring serum liver damage enzymes, aspartate aminotransferase (AST) and alanine aminotransferase (ALT), using a standard clinical biochemical analyzer. Livers of ConA-treated mice were sectioned and stained with H&E to evaluate the degree of T cell-mediated immune inflammation.

MST1 = biological target: T1, MST1 (Homo sapiens, UniProt Q13043); test: In vitro measurement of MST1 inhibition (Z′-Lyte kinase assay); type: biochemical
T1 sequence (Q13043 1-487): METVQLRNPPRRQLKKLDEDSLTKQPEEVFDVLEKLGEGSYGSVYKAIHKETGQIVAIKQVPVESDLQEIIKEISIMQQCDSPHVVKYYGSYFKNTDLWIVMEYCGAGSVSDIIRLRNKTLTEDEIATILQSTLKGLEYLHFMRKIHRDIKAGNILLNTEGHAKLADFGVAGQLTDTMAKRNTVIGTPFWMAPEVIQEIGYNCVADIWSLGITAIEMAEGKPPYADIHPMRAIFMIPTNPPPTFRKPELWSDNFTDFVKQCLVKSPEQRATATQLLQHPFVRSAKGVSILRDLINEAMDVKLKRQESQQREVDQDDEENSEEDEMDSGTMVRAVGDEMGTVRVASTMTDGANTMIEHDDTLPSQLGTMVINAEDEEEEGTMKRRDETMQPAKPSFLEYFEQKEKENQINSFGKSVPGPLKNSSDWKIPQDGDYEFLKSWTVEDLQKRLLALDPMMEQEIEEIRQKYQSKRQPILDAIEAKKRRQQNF

rat CIA disease model = test: Rat CIA disease model; type: in vivo; conditions: rats, 10 and 25 mg/kg PO BID, 50 mg/kg QD from Day 11 after immunization; FIG. 5
Method: CIA was elicited in rats according to Rosloniec, E. F., et al., Curr Protoc Immunol Chapter 15: Unit 15, pp. 11-25. Here, Lewis rats (150-200 g, female; Charles River Laboratories, Wilmington, Mass.) were injected intradermally at the base of the tail with a total of 300 μl of a 1:1 emulsion of bovine type II collagen (CII; 150 μg total; Sigma-Aldrich) and incomplete Freund's adjuvant (IFA; 150 μl total; Sigma-Aldrich), followed by a repeat booster injection of the same emulsion 7 days after the primary immunization. Rats were monitored for signs of arthritis by clinical scoring (visual observation) of each rat paw, using the rating scale described above. The extent of swelling was calculated by subtracting the baseline values of the first measurement from the values of subsequent measurements.

mouse CIA disease model = test: Mouse CIA disease model; type: in vivo; conditions: mice, 10, 30, 100 mg/kg PO bid 21 days from Day 20 after immunization; FIG. 4
Method: Eight to 16 weeks old DBA/1 mice were immunized intradermally (i.d.) at several sites into the base of the tail with 100 μg of chicken type II collagen (CII; Sigma Chemical Co.) in Freund's complete adjuvant (CFA; Difco, Detroit, Mich.) containing 2.5 mg/ml M. tuberculosis, followed by a repeat booster i.d. injection of CII (100 μg emulsified in CFA) given 3 weeks after the primary immunization. Mice were monitored daily for signs of arthritis, and disease severity scores were assessed by a visual scoring of 0 to 4 according to the following scale: 0=no erythema and swelling; 1=erythema and mild swelling of the mid-foot or ankle joint; 2=erythema and mild swelling extending from the ankle to the mid-foot; 3=erythema and moderate swelling extending from the ankle to the metatarsal joints; 4=erythema and severe swelling of the ankle, foot, and digits. Total disease severity scores were recorded as a sum of visual scores for four limbs. In addition to visual scoring, paw thickness was measured with a micrometer caliper.

[2] = 1 μM ATP, read-out: IC50 (μM) 1 μM ATP
[3] = 50 μM ATP, read-out: IC50 (μM) 50 μM ATP

Compound	IC50 (MST1; [2]) [µM]	IC50 (MST1; [3]) [µM]	also measured
N#CC1(c2ccc(-c3cnc(N)c(-c4ccc5c(c4)CCNC5=O)n3)cc2)CC1 [1-(4-(5-amino-6-(1-oxo-1,2,3,4-tetrahydroisoquinolin-6-yl)pyrazin-2-yl)phenyl)cyclopropanecarbonitrile]	< 0.05	< 0.01	severity of clinical score (rat EAE model; rats, 0.3, 1, 3 or 10 mg/kg PO QD from Day 10 after immunization, FIG. 7A): dose-dependent reduction in severity of clinical score; TNF-α, IL-6, MCP-1, IFN-γ, ALT and AST ([1]; mice, 1, 3, 10, 30 mg/kg PO 16 h and 1 h before and 8 h after Con-A challenge, FIG. 8): clear effect
CN(C1CC1)S(=O)(=O)c1ccc(-c2cnc(N)c(-c3ccc4c(c3)CCNC4=O)c2)cc1 [4-(6-amino-5-(1-oxo-1,2,3,4-tetrahydroisoquinolin-6-yl)pyridin-3-yl)-N-cyclopropyl-N-methylbenzenesulfonamide]	< 0.01	< 0.01	severity of clinical score (rat EAE model; rats, 10, 25 or 50 mg/kg PO BID from Day 9 after immunization, FIG. 3): dose-dependent reduction in severity of clinical score; cumulative arthritis score and change in ankle thickness (rat CIA disease model): therapeutic effect; cumulative arthritis score and change in ankle thickness (mouse CIA disease model): clear benefit versus control; TNF-α, IL-6, MCP-1, IFN-γ, ALT and AST ([1]; mice, 10, 30, 100 mg/kg dosed 16 h and 1 h before and 8 h after Con-A challenge, FIG. 6): clear effect
CN(C)S(=O)(=O)N1CC=C(c2cnc(N)c(-c3ccc4c(c3)CCNC4=O)c2)CC1 [6-amino-N,N-dimethyl-5-(1-oxo-1,2,3,4-tetrahydroisoquinolin-6-yl)-5′,6′-dihydro-[3,4′-bipyridine]-1′(2′H)-sulfonamide]	< 0.15	< 0.05	–
CC(C)(C#N)c1ccc(-c2cnc(N)c(-c3ccc4c(c3)CCNC4=O)n2)s1 [2-(5-(5-amino-6-(1-oxo-1,2,3,4-tetrahydroisoquinolin-6-yl)pyrazin-2-yl)thiophen-2-yl)-2-methylpropanenitrile]	< 0.05	< 0.01	–
Cc1ccc(-c2cnc(N)c(-c3ccc4c(c3)CCNC4=O)c2)s1 [6-(2-amino-5-(5-methylthiophen-2-yl)pyridin-3-yl)-3,4-dihydroisoquinolin-1(2H)-one]	< 0.05	< 0.01	–
N#CC1(c2ccc(-c3cnc(N)c(-c4ccc5c(c4)C4(CC4)NC5=O)c3)cc2)CCOCC1 [4-(4-(6-amino-5-(3′-oxospiro[cyclopropane-1,1′-isoindolin]-6′-yl)pyridin-3-yl)phenyl)tetrahydro-2H-pyran-4-carbonitrile]	< 0.05	< 0.01	–
CCN(C)S(=O)(=O)c1ccc(-c2cnc(N)c(-c3cc4c(s3)C(=O)NCC4)c2)cc1 [4-(6-amino-5-(7-oxo-4,5,6,7-tetrahydrothieno[2,3-c]pyridin-2-yl)pyridin-3-yl)-N-ethyl-N-methylbenzenesulfonamide]	< 0.05	< 0.01	–
CNS(=O)(=O)c1ccc(-c2cnc(N)c(-c3ccc(C(N)=O)cc3)c2)cc1 [4-(2-amino-5-(4-(N-methylsulfamoyl)phenyl)pyridin-3-yl)benzamide]	–	< 0.15	–
N#Cc1ccc(-c2cnc(N)c(-c3cc4c(cn3)C(=O)NCC4)n2)cc1 [4-(5-amino-6-(8-oxo-5,6,7,8-tetrahydro-2,7-naphthyridin-3-yl)pyrazin-2-yl)benzonitrile]	< 0.01	< 0.01	–
CN(C1CC1)S(=O)(=O)c1ccc(-c2cnc(N)c(-c3ccc4c(c3)CCCCC(=O)N4)c2)cc1 [4-(6-amino-5-(2-oxo-1,2,3,4,5,6-hexahydrobenzo[b]azocin-8-yl)pyridin-3-yl)-N-cyclopropyl-N-methylbenzenesulfonamide]	< 0.15	< 0.05	–
CCN(C)S(=O)(=O)c1ccc(-c2cnc(N)c(-c3ccc4c(c3)CCNC4=O)n2)cc1Cl [4-(5-amino-6-(1-oxo-1,2,3,4-tetrahydroisoquinolin-6-yl)pyrazin-2-yl)-2-chloro-N-ethyl-N-methylbenzenesulfonamide]	< 0.01	< 0.01	–
NC(=O)c1ccc(-c2cc(-c3ccc(CC(=O)N4CCCC4)cc3)cnc2N)cc1 [4-(2-amino-5-(4-(2-oxo-2-(pyrrolidin-1-yl)ethyl)phenyl)pyridin-3-yl)benzamide]	–	< 0.15	–
Nc1ncc(-c2ccc(S(=O)(=O)N3CCCC34CC4)cc2)cc1-c1ccc2c(c1)CCNC2=O [6-(5-(4-(4-azaspiro[2.4]heptan-4-ylsulfonyl)phenyl)-2-aminopyridin-3-yl)-3,4-dihydroisoquinolin-1(2H)-one]	< 0.05	< 0.01	–
CN(C1CC1)S(=O)(=O)c1ccc(-c2cnc(N)c(-c3ccc4c(c3)C3(CC3)CNC4=O)c2)cc1 [4-(6-amino-5-(1′-oxo-2′,3′-dihydro-1′H-spiro[cyclopropane-1,4′-isoquinolin]-6′-yl)pyridin-3-yl)-N-cyclopropyl-N-methylbenzenesulfonamide]	< 0.01	< 0.01	–
CC(=O)NS(=O)(=O)c1ccc(-c2cnc(N)c(-c3ccc(C(N)=O)cc3)c2)cc1 [4-(5-(4-(N-acetylsulfamoyl)phenyl)-2-aminopyridin-3-yl)benzamide]	–	< 0.15	–
Nc1ncc(-c2ccc(F)cc2)cc1-c1cc2c(cn1)C(=O)NCC2 [6-(2-amino-5-(4-fluorophenyl)pyridin-3-yl)-3,4-dihydro-2,7-naphthyridin-1(2H)-one]	< 0.05	< 0.05	–
CN(C1CC1)S(=O)(=O)c1ccc(-c2cnc(N)c(-c3ccc4c(=O)[nH]ccc4c3)n2)cc1 [4-(5-amino-6-(1-oxo-1,2-dihydroisoquinolin-6-yl)pyrazin-2-yl)-N-cyclopropyl-N-methylbenzenesulfonamide]	< 0.01	< 0.01	–
CC(C)(C)c1ccc(-c2cnc(N)c(-c3ccc4c(c3)CCNC4=O)n2)cc1 [6-(3-amino-6-(4-(tert-butyl)phenyl)pyrazin-2-yl)-3,4-dihydroisoquinolin-1(2H)-one]	< 0.05	< 0.01	–

— patent US8440652B2, “MST1 kinase inhibitors and methods of their use” (Lexicon Pharmaceuticals, Inc., priority 2011, dated 2013)
